From patent US11053475B2, “Methods of expanding hematopoietic stem cells, compositions, and methods of use thereof” (WISCONSIN ALUMNI RESEARCH FOUNDATION, priority 2015, dated 2021)

How the values were obtained:
[1] = test system: Lin- hematopoietic precursors from E14.5 fetal livers; experiment: Erythroid maturation (CD71/Ter119, R1-R5) of E14.5 fetal liver hematopoietic precursors, flow cytometry; format: cell-based, mouse; settings: Lin- HSPCs from fetal liver, DMSO as control, 3 days
Method: Primary erythroid precursor cell isolation. Primary erythroid precursors were isolated from E14.5 fetal livers using the EasySep™ negative selection Mouse Hematopoietic Progenitor Cell Enrichment Kit (StemCell Technologies). Briefly, fetal livers were dissociated by pipetting and resuspended at 5×10^7 cell/ml in PBS containing 2% FBS, 2.5 mM EDTA, and 10 mM glucose. EasySep™ Mouse Hematopoietic Progenitor Cell Enrichment Cocktail was added at 50 μg/ml supplemented with 2.5 μg/ml biotin-conjugated CD71 antibody (eBioscience). After 15 min incubation on ice, the cells were washed by centrifugation for […] at 1200 rpm at 4° C. and resuspended at 5×10^7 cell/ml in PBS containing 2% FBS, 2.5 mM EDTA, and 10 mM glucose, and EasySep™ Biotin Selection Cocktail was added at 100 μg/ml. After 15 min incubation at 4° C., EasySep™ Mouse Progenitor Magnetic Microparticles were added at 50 μg/ml. […]
(§1) Flow cytometry. […] APC-conjugated antibody CD31 (MEC13.3, Biolegend), PE-conjugated antibody c-Kit (2B8, eBioscience), PerCP-Cy5.5-conjugated antibody Scal (D7, eBioscience), APC-conjugated antibody Ter119 (TER119, eBioscience) and PE-conjugated CD71 (R17217, eBioscience) were used for flow cytometry and Fluorescence Activated Cell Sorting (FACS). Samples were analyzed on a FACSAria™ II cell sorter (BD Biosciences). […]

Gata2 expression = experiment: RT-PCR and Western blot of Gata2/GATA-2 and GATA-2 target genes in fetal liver cells and FACS-sorted R2 cells; format: cell-based, mouse; settings: total fetal liver cells, compound treatment, 72 h
Method: Cell culture. G1E-ER-GATA-1 cells were cultured with or without 1 μM estradiol as previously described. Fetal liver erythroid precursor cells were cultured and maintained at a density of 2.5×10^5−1×10^6 cells/ml in StemPro®-34 (Gibco) supplemented with 10% nutrient supplement (Gibco), 2 mM L-glutamine (Cellgro), 1% Penicillin/streptomycin (Cellgro), 100 μM monothioglycerol (Sigma-Aldrich), 1 μM dexamethasone (Sigma-Aldrich), 0.5 U/ml of erythropoietin, and 1% conditioned medium from a kit ligand-producing CHO cell line for expansion. Cells were cultured in a humidified incubator at 37° C. (5% carbon dioxide).
Quantitative real-time RT-PCR. […] Real-time PCR was performed with SYBR green master mix (Applied Biosystems) and Product accumulation was monitored by SYBR green fluorescence using either a StepOnePlus™ or Viia™7 instrument (Applied Biosystems). Relative expression was determined from a standard curve of serial dilutions of cDNA samples, and values were normalized to 18S RNA expression. […]
as §1, with “(FACS).” for “(FACS). Samples were analyzed on a FACSAria™ II cell sorter (BD Biosciences).”

Structure (SMILES)	activity on erythropoiesis (flow analysis, R1-R5), compared with psychosine [1]	Gata2 mRNA level vs DMSO-treated control (Gata2 expression)	Gata2 primary transcript level vs DMSO-treated control (Gata2 expression)
CCCCCCCCCCCCC/C=C/[C@@H](O)C(N)CO[C@H]1O[C@H](CO)[C@@H](O[C@@H]2O[C@H](CO)[C@H](O)[C@H](O)[C@H]2O)[C@H](O)[C@@H]1O (stereo partly drawn) [lactosylsphingosine]	not	–	–
CCCCCCCCCCCCC/C=C/C(O)C(N)CO[C@@H]1O[C@H](CO)[C@H](O)[C@H](O)[C@H]1O (stereo partly drawn) [psychosine, galactosylsphingosine]	–	2-3 fold	2-3 fold
